Results: patent US6723523B2, “System and method for investigating the effect of chemical and other factors on cell movement” (University of Connecticut, priority 2000, dated 2004)

Legend:
Dictyostelium cells = test: Inhibition of chemotactic response to folic acid by cisplatin, ECIS/taxis; format: cell-based, Dictyostelium discoidium; details: increasing concentrations of cisplatin, folic acid as chemoattractant
Method: These chambers were filled with 300 μL of a 0.5% solution of melted agarose prepared as described above. The thickness of the agarose layer is 4 mm. […]

[1] = tested on: Dictyostelium discoidium strain NC4A2 cells; test: ECIS/taxis under-agarose chemotaxis assay, cell movement in a folate gradient; format: cell-based
Method: Dictyostelium discoidium strain NC4A2 is an axenic cell line derived from the wild type NC4 line. The myosin II heavy chain mutant (HK323) was generated by homologous recombination to delete the coding portion of the gene in the NC4A2 cell line. Cells were maintained in HL5 media in 100 mm petri dishes with media changes every three days. Cells to be used for experimental procedures were harvested at mid-log phase. Cells were centrifuged at 200×g for 5 minutes at room temperature, re-suspended in fresh media and counted with a Z2 particle counter (Coulter, Miami, Fla.). Chambers were loaded with 10^6 cells per well.
Chemotaxis assays were adapted from the under-agarose chemotaxis method. Briefly, a 0.5% solution of GTG agarose (FMC Corporation, Rockland, Me.) was prepared in 1×SM media (10 g Difco Bacto-Peptone, 10 g glucose, 1 g yeast extract, 1.9 g KH2PO4, 0.6 g K2HPO4, 0.43 g MgSO4 per liter, pH 6.5). For chemokinetic assays, 2×SM agarose media was premixed with an equal volume of 2× folic acid and then added to the chamber to harden.
The chemoattractant folic acid (Research Organics, Inc. Cleveland, Ohio) stock at 100 mM was prepared by dissolving 0.44 g folate in 220 ul of 10 M NaOH. The final volume was adjusted to 10 ml with distilled water. The solution was filter sterilized through a 0.2 micron filter, aliquoted and stored frozen at −20° C. in the dark. The folate solution was adjusted to the appropriate concentration and added to wells one hour prior to the addition of cells to allow for establishment of the chemotactic gradient. […] Following this incubation, the cells were washed three times in PDF and then re-suspended in PDF before placement in the cell wells of ECIS/taxis chambers.
The commercially available ECIS electrode configuration (Applied Biophysics, Inc., Troy, N.Y.) consists of 8 chambers per array, each with a large electrode and a small target electrode (see panel A of FIG. 2). These chambers were filled with 300 μL of a 0.5% solution of melted agarose prepared as described above. […]
The chemoattractant was then loaded into one well in appropriate chambers and the gradient was allowed to form for one hour. […] Impedance to this current flow was measured and a resistance value was calculated according to established protocols. […] In the results presented below, the data is presented as normalized resistance, which is calculated as a fraction of the initial resistance of the chamber at the start of the experiment.
A gradient was established by loading 1 mM folate into the chemoattractant well of a modified ECIS chamber, and one hour later Dictyostelium cells were placed in the adjacent cell well. […] In order to visualize the arrival of the cells at the target electrode, the cells exposed to folate were continuously monitored by video microscopy. […]

Structure (SMILES)	effect on time of arrival of cells at the electrode (Dictyostelium cells)	absolute number of cells that arrive at the electrode versus folate dose ([1]; folate 0.16 to 1 mM in chemoattractant well)	time of arrival of cells at the target electrode after placement of cells in the cell well ([1]; gradient formed by 1 mM folate)	average speed of cell movement to the target electrode ([1]; gradient from 1 mM folate)	time of first small resistance peak (initial cell spreading on the target electrode) ([1]; gradient from 1 mM folate in chemoattractant well, loaded 1 h before cells, wells 2 mm from electrode)
N.N.[Cl][Pt][Cl] [cisplatin, Cisplatin]	delayed in a manner proportional to the dose of cisplatin				
Nc1nc2ncc(CNc3ccc(C(=O)N[C@@H](CCC(=O)O)C(=O)O)cc3)nc2c(=O)[nH]1 [folate, folic acid]		absolute number of cells that arrive decreases as the dose of folate used to establish the gradient decreases	approximately 3.5 hours	approximately 10 μm/min	3.75 h
